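Interpolation was linear, between the two tested concentrations surrounding the appropriate level; five concentrations were tested over 48 hours in 96-well plates. Here, GI50 denotes the concentration required for 50% inhibition of growth. TGI is the concentration that stops growth completely.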
What was measured:
Assay in all cases: inhibition of tumour cell growth, NCI panel, 48 h
MOLT-4 leukemia = system: MOLT-4 leukemia
SK-MEL-28 melanoma = system: SK-MEL-28 melanoma
NCI-H226 lung = system: NCI-H226 lung
EKVX NSCLC = system: EKVX NSCLC
SN12C renal = system: SN12C renal
HCC-2998 colon = system: HCC-2998 colon
M14 melanoma = system: M14 melanoma
TK-10 renal = system: TK-10 renal
HOP-62 NSCLC = system: HOP-62 NSCLC

| Compound | TGI (MOLT-4 leukemia) [µM] | TGI (SK-MEL-28 melanoma) [µM] | TGI (NCI-H226 lung) [µM] | TGI (EKVX NSCLC) [µM] | TGI (SN12C renal) [µM] | TGI (HCC-2998 colon) [µM] | TGI (M14 melanoma) [µM] | TGI (TK-10 renal) [µM] | TGI (HOP-62 NSCLC) [µM] | GI50 (MOLT-4 leukemia) [µM] | GI50 (NCI-H226 lung) [µM] | GI50 (HOP-62 NSCLC) [µM] | GI50 (EKVX NSCLC) [µM] | GI50 (SN12C renal) [µM] | GI50 (HCC-2998 colon) [µM] | GI50 (M14 melanoma) [µM] | GI50 (TK-10 renal) [µM] | GI50 (SK-MEL-28 melanoma) [µM] |
| --- | --- | --- | --- | --- | --- | --- | --- | --- | --- | --- | --- | --- | --- | --- | --- | --- | --- | --- |
| COc1c(O)c2c3c(cc(C)cc3c1C(C)C)OC2 | > 100 | > 100 | > 100 | > 100 | > 100 | > 100 | > 100 | > 100 |  |  |  |  |  |  |  |  |  |  |
| O=[N+]([O-])c1ccc(-n2nnc(C3=NCCN3)c2-c2ccccc2)cc1 | > 100 | > 100 | > 100 | > 100 | > 100 | > 100 | > 100 | > 100 | > 100 |  |  |  |  |  |  |  |  |  |
| COc1cc2c[n+](C)c3c4cc(OC)c(OC(C)C)cc4ccc3c2cc1OC | > 100 | > 100 | > 100 | > 100 | > 100 | > 100 | > 100 | > 100 | > 100 |  |  |  |  |  |  |  |  |  |
| O=C(O)CC[C@H](NC(=O)c1ccc(-n2nc3ccc(O)cc3nc2=O)cc1)C(=O)O | > 100 | > 100 |  | > 100 | > 100 | > 100 | > 100 | > 100 | > 100 |  |  |  |  |  |  |  |  |  |
| COc1ccc(/C=C/c2cc(OC)c(OC)c(OC)c2)cc1 | > 100 | 96.8 | > 87.7 | > 100 | > 100 | 15.7 | > 100 | > 100 | 60.1 |  |  |  |  |  |  |  |  |  |
| N/N=C(/C(=O)Nc1cccc(Cl)c1)C(C(=O)c1ccc(O)cc1O)C1OC(=O)c2ccccc21 (stereo not given) | > 100 | > 100 | > 100 | > 100 | > 100 | > 100 | > 100 | > 100 | > 100 |  |  |  |  |  |  |  |  |  |
| c1cncc(C2N3CCCCC3[C@@H]3c4[nH]c5ccccc5c4CCN23)c1 (stereo not given in full) | > 100 | > 100 |  | > 100 | > 100 |  | > 100 | > 100 | > 100 |  |  |  |  |  |  |  |  |  |
| O=C(c1ccc(Cl)cc1Cl)C1[C@H]2C(=O)N(c3ccc(Cc4ccc(N5C(=O)[C@@H]6ON(c7ccccc7)C(C(=O)c7ccc(Cl)cc7Cl)[C@@H]6C5=O)cc4)cc3)C(=O)[C@H]2ON1c1ccccc1 (stereo not given in full) | > 50 | > 50 | > 50 |  | > 50 | > 50 | > 50 | > 50 | > 50 |  |  |  |  |  |  |  |  |  |
| CCOC(=O)CC[C@H](NC(=O)c1nc[nH]c1[N+](=O)[O-])C(=O)OCC | > 100 | > 100 | > 100 | > 100 | > 100 | > 100 | > 100 | > 100 | > 100 |  |  |  |  |  |  |  |  |  |
| O=S(=O)(/C=C/c1ccc(F)cc1)Cc1ccc(CS(=O)(=O)/C=C/c2ccc(F)cc2)cc1 | > 100 | > 100 | > 100 | > 100 | > 100 | > 100 | > 100 | > 100 | > 100 |  |  |  |  |  |  |  |  |  |
| CCCCCCC[CH2][Sn]([CH2]CCCCCCC)([O]c1cccc2cccnc12)[O]c1cccc2cccnc12 | 3.81 |  | 5.53 | 7.18 | 4.32 | 3.43 | 3.17 | 13.7 | 3.67 | 0.595 | 2.24 | 2.11 | 2.06 | 1.96 | 1.99 | 1.33 | 3.85 |  |
| O=C1C(c2ccccc2)=C(O)c2cccc3cccc1c23 | > 100 | > 100 | > 100 | > 100 | > 100 | > 100 | > 100 | > 100 |  |  |  |  |  |  |  |  |  |  |
| Cc1ccc2c(c1)-c1c3c(nn1-c1ccccc1)-c1ccccc1SC3O2 (stereo not given) | > 100 | > 100 |  | > 100 |  | > 100 |  | > 100 | > 100 |  |  |  |  |  |  |  |  |  |
| CC(CN(C)C)/C(=N\Nc1ccccc1)c1ccccc1 (stereo not given) | 14 | 5.79 |  | 35.6 | > 100 |  | 16.8 | 5.56 | 12 |  |  |  |  |  |  |  |  |  |
| CC(=O)Nc1ccc(S(=O)(=O)N/N=C/CN2C(=O)c3ccccc3C2=O)cc1 | > 100 |  | > 100 | > 100 | > 100 | > 100 | > 100 | > 100 | > 100 |  |  |  |  |  |  |  |  |  |
| NC(=O)CN(CC(N)=O)C(N)=O | > 100 | > 100 | > 100 | > 100 |  |  | > 100 | > 100 |  |  |  |  |  |  |  |  |  |  |
| CCOC(=O)/C(C1=NCCN1)=C(\O)c1ccccc1 | > 100 | > 100 | > 100 | > 100 | > 100 | > 100 | > 100 |  | > 100 |  |  |  |  |  |  |  |  |  |
| CC(=O)[CH-]C(=O)c1ccccc1.CC(=O)[CH-]C(=O)c1ccccc1.CC[O-].CC[O-].[Hf+4] | > 100 | > 100 | > 100 | > 100 | > 100 | > 100 | > 100 |  | > 100 | > 100 | > 100 | > 100 | 38.2 | > 100 | > 100 | > 100 |  | > 100 |
